# In patent publication US20260285853A1, “COMPOUNDS AND METHODS FOR MODULATING SPLICING” (REMIX THERAPEUTICS INC., priority 2023, published 2026):
# Read-outs that look alike come from different tables or passages of the source.
# Key:
# Type in all cases: cell-based
# MYB mRNA [1] = test: Splicing RT-qPCR assay (THP), Table 2A
# HTT mRNA [2] = test: Splicing RT-qPCR assay (THP), Table 2A
# [3] = tested on: SH-SY5Y (human neuroblastoma) cells; test: Cell viability, Cell Titer Glo 2.0 assay; details: read-out: Viability SHSY5Y.3 GI50
# How it was run: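 Viability was read by CellTiter-Glo 2.0 luminescence after a 72-hour compound exposure at 37° C. under 5% CO2. Cells were in IMDM plus 10% FBS containing 0.1% DMSO, and medium-only wells gave the blank.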
# HTT mRNA [4] = test: Gene panel canonical junction qPCR assay, decrease in CJ mRNA, Table 3
# How it was run: (§1)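 IC50 denotes the concentration giving 50% decrease in canonical-junction mRNA, fitted by 4-parameter logistic to percentage response derived from ΔΔCt versus housekeeping gene and DMSO control. Cells (A673 or K562) exposed 24 h to 11-point 3-fold serial dilutions from 10 uM top, DMSO ≤0.25%; junction-spanning primer/probe qPCR.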
# MYB mRNA [5] = test: as above
# How it was run: as §1
# [6] = Table 2A (THP), AJ mRNA increase, read-out: MYB AJ (increase in alternative junction mRNA, AC50)
# [7] = Table 2A (THP), CJ mRNA decrease, read-out: MYB CJ (decrease in canonical junction mRNA, IC50)
# [8] = Table 2A (THP), AJ mRNA increase, read-out: HTT AJ (increase in alternative junction mRNA, AC50)
# [9] = Table 2A (THP), CJ mRNA decrease, read-out: HTT CJ (decrease in canonical junction mRNA, IC50)
# [10] = decrease in canonical junction (CJ) mRNA, gene panel qPCR, Table 3
# [11] = Table 2A, THP, MYB alternative junction (AJ) mRNA, read-out: MYB AJ (AC50, increase in alternative junction mRNA)
# [12] = Table 2A, THP, MYB canonical junction (CJ) mRNA, read-out: MYB CJ (IC50, decrease in canonical junction mRNA)
# [13] = Table 2A, THP, HTT alternative junction (AJ) mRNA, read-out: HTT AJ (AC50, increase in alternative junction mRNA)
# [14] = Table 2A, THP, HTT canonical junction (CJ) mRNA, read-out: HTT CJ (IC50, decrease in canonical junction mRNA)
# [15] = decrease in CJ mRNA levels, canonical junction qPCR, gene panel
IC50 (MYB mRNA [1]; [7]) [µM],IC50 (HTT mRNA [2]; [9]) [µM],GI50 [3] [µM],IC50 (HTT mRNA [4]; [10]) [µM],IC50 (MYB mRNA [5]; [10]) [µM],IC50 (MYB mRNA [1]; [12]) [µM],IC50 (HTT mRNA [2]; [14]) [µM],IC50 (HTT mRNA [4]; [15]) [µM],IC50 (MYB mRNA [5]; [15]) [µM],SMILES,AC50 (MYB mRNA [1]; [6]) [µM],AC50 (HTT mRNA [2]; [8]) [µM],AC50 (MYB mRNA [1]; [11]) [µM],AC50 (HTT mRNA [2]; [13]) [µM]
1 to 10,1 to 10,1 to 10,1 to 10,1 to 10,,,,,"CCNC1CCN(c2ccc(C(=O)Nc3cn4cc(C)nc(C5CC5)c4n3)c3nn(C)cc23)CC1 [Compound 312, N-(8-cyclopropyl-6-methyl-imidazo[1,2-a]pyrazin-2-yl)-4-[4-(ethylamino)-1-piperidyl]-2-methyl-indazole-7-carboxamide]",1 to 10,1 to 10,,
1 to 10,> 10,1 to 10,> 10,1 to 10,,,,,"CCNC1CCN(c2cc(F)c(C(=O)Nc3cn4cc(C)nc(OC)c4n3)c3nn(C)cc23)CC1 [Compound 351, 4-[4-(ethyl-amino)-1-piperidyl]-6-fluoro-N-(8-methoxy-6-methyl-imidazo[1,2-a]-pyrazin-2-yl)-2-methyl-indazole-7-carboxamide]",> 10,> 10,,
,,> 10,,,1 to 10,1 to 10,1 to 10,1 to 10,"Cc1cn2cc(NC(=O)c3ccc(NC(=O)C4CCNC4)c4[nH]cnc34)cc(F)c2n1 (centres unmarked) [Compound 614, N-(8-fluoro-2-methyl-imidazo[1,2-a]pyridin-6-yl)-7-(pyrrolidine-3-carbonylamino)-1H-benzimidazole-4-carboxamide]",,,1 to 10,> 10
,,1 to 10,,,1 to 10,1 to 10,1 to 10,1 to 10,"COc1nc2c(C(=O)Nc3cc4c(C)nc(C)cn4n3)ccc(N3C[C@H](C)N[C@@H](C)C3)c2s1 [Compound 710, 7-[(3S,5S)-3,5-dimethylpiperazin-1-yl]-N-(4,6-dimethylpyrazolo[1,5-a]pyrazin-2-yl)-2-methoxy-1,3-benzothiazole-4-carboxamide]",,,1 to 10,1 to 10
1 to 10,> 10,> 10,> 10,1 to 10,,,,,"COc1cc2nn(C)cc2cc1NC(=O)c1c(F)cc(N2CC3(CNC3)C2)c2cn(C)nc12 [Compound 455, 4-(2,6-diazaspiro[3.3]-heptan-2-yl)-6-fluoro-N-(6-methoxy-2-methyl-indazol-5-yl)-2-methyl-indazole-7-carboxamide]",1 to 10,> 10,,
0.1 to 1,1 to 10,1 to 10,1 to 10,0.1 to 1,,,,,"CCNC1CCN(c2ccc(C(=O)Nc3cc4cn(C)nc4cc3OC)c3nn(C)cc23)CC1 [Compound 388, 4-[4-(ethylamino)-1-piperidyl]-N-(6-methoxy-2-methyl-indazol-5-yl)-2-methyl-indazole-7-carboxamide]",0.1 to 1,1 to 10,,
,,1 to 10,,,1 to 10,> 10,> 10,1 to 10,"COc1nc2c(C(=O)Nc3cc(F)c4nn(C)cc4c3)ccc(N3CC(C)NCC3C)c2s1 (centres unmarked) [Compound 772, 7-(2,5-dimethylpiperazin-1-yl)-N-(7-fluoro-2-methyl-indazol-5-yl)-2-methoxy-1,3-benzothiazole-4-carboxamide]",,,0.1 to 1,> 10
,,1 to 10,,,> 10,> 10,> 10,> 10,Cc1cn2cc(NC(=O)c3ccc(N4CCC(NC5CC5)CC4)c4cn(C)nc34)nc2c(CCN(C)C)n1 [Compound 776],,,> 10,> 10
> 10,> 10,> 10,> 10,> 10,,,,,"CCNC1CCN(c2cc(F)c(C(=O)Nc3nc4c(C)nc(C)cc4n3C)c3nn(C)cc23)CC1 [Compound 402, 4-(4-(ethylamino)-piperidin-1-yl)-6-fluoro-2-methyl-N-(1,4,6-trimethyl-1H-imidazo[4,5-c]pyridin-2-yl)-2H-indazole-7-carboxamide bis(2,2,2-trifluoroacetate)]",> 10,> 10,,
> 10,> 10,0.1 to 1,> 10,> 10,,,,,"Cc1cc2cc(NC(=O)c3ccc(N4CCC(NC5CC5)CC4)c4cn(C)nc34)sc2c(C)n1 [Compound 483, 4-[4-(cyclopropyl-amino)-1-piperidyl]-N-(5,7-dimethyl-thieno[2,3-c]-pyridin-2-yl)-2-methyl-indazole-7-carboxamide]",> 10,> 10,,
0.1 to 1,0.1 to 1,0.1 to 1,0.1 to 1,0.1 to 1,,,,,"CCNCC1CCN(c2cc(F)c(C(=O)Nc3cc4cn(C)nc4cc3OC)c3nn(C)cc23)C1 (centres unmarked) [Compound 464, 4-(3-[(ethylamino)methyl]pyrrolidin-1-yl)-6-fluoro-N-(6-methoxy-2-methylindazol-5-yl)-2-methylindazole-7-carboxamide]",0.1 to 1,0.1 to 1,,
,,> 10,,,1 to 10,> 10,> 10,1 to 10,Cn1cc2cc(NC(=O)c3ccc(N4CCC(NC5CC5)CC4)c4cn(C)nc34)cc(CNc3cn[nH]c3)c2n1 [Compound 883],,,1 to 10,> 10
,,< 0.1,,,< 0.1,1 to 10,1 to 10,< 0.1,"COc1nc2c(C(=O)Nc3cc(C)c4nn(C)cc4c3)ccc(N3C[C@H](C)N[C@@H](C)C3)c2s1 [Compound 718, N-(2,7-dimethylindazol-5-yl)-7-[(3S,5S)-3,5-dimethylpiperazin-1-yl]-2-methoxy-1,3-benzothiazole-4-carboxamide]",,,< 0.1,1 to 10
1 to 10,> 10,> 10,> 10,1 to 10,,,,,Cc1cn2cc(NC(=O)c3ccc(N4CC5(CNC5)C4)c4cn(C)nc34)nc2c(C)n1 [Compound 496],0.1 to 1,> 10,,
,,1 to 10,,,0.1 to 1,> 10,> 10,0.1 to 1,"COc1nc2c(C(=O)Nc3cn4c(C)nc(C)cc4n3)ccc(N3C[C@H](C)N[C@@H](C)C3)c2s1 [Compound 782, N-(5,7-dimethylimidazo[1,2-c]pyrimidin-2-yl)-7-[(3S,5S)-3,5-dimethylpiperazin-1-yl]-2-methoxy-1,3-benzothiazole-4-carboxamide]",,,0.1 to 1,> 10
0.1 to 1,> 10,1 to 10,> 10,0.1 to 1,,,,,Cc1cn2cc(NC(=O)c3ccc(N4CCC5(CCCN5)CC4)c4cn(C)nc34)nc2c(C)n1 [Compound 529],0.1 to 1,> 10,,
> 10,> 10,1 to 10,> 10,> 10,,,,,"Cc1cc2c(nc(NC(=O)c3ccc(N4CCC(NC5CC5)CC4)c4cn(C)nc34)n2C)c(C)n1 [Compound 597, 4-[4-(cyclopropylamino)-1-piperidyl]-2-methyl-N-(1,4,6-trimethylimidazo[4,5-c]-pyridin-2-yl)indazole-7-carboxamide]",> 10,> 10,,
> 10,> 10,> 10,> 10,> 10,,,,,"Cn1cc2c(N3CCC(NC4CC4)CC3)cc(F)c(C(=O)Nc3ccnnc3O)c2n1 [Compound 420, 4-[4-(cyclopropylamino)-1-piperidyl]-6-fluoro-N-(3-hydroxypyridazin-4-yl)-2-methyl-indazole-7-carboxamide]",> 10,> 10,,
,,0.1 to 1,,,0.1 to 1,1 to 10,1 to 10,0.1 to 1,"COc1nc2c(C(=O)Nc3cc4cn(C)nc4cc3OC)ccc(N3CCC(NC4CC4)CC3)c2s1 [Compound 668, 7-(4-(cyclopropylamino)-piperidin-1-yl)-2-methoxy-N-(6-methoxy-2-methyl-2H-indazol-5-yl)benzo[d]-thiazole-4-carboxamide 2,2,2-trifluoroacetate]",,,0.1 to 1,1 to 10
< 0.1,1 to 10,0.1 to 1,1 to 10,< 0.1,,,,,"COc1c(NC(=O)c2c(F)cc(N3CC[C@H](NC4CC4)C4(CC4)C3)c3cn(C)nc23)cn2cc(C)nc2c1F [Compound 367, 4-[(8S)-8-(cyclopropylamino)-5-azaspiro[2.5]octan-5-yl]-6-fluoro-N-(8-fluoro-7-methoxy-2-methyl-imidazo[1,2-a]pyridin-6-yl)-2-methyl-indazole-7-carboxamide]",< 0.1,1 to 10,,
